The source of these data is patent US20090196912A1, “Pyridinylamines” (GPC Botech AG, priority 2004, published 2009).

Experiment in all cases: Generic kinase assay (33P-ATP, Myelin Basic Protein)
Holding throughout (type): biochemical

The target of one test is ROCK 2 (Homo sapiens, UniProt O75116). Conditions: class symbol: % inhibition at 10 μM or IC50; for inhibition at 10 µM: 1 h, read-out: Inhibitory effect on target ROCK 2. How it is done: (§1) In order to determine the inhibitory effect of the compounds of the subject invention on various target enzymes a generic kinase assay was established.
(§2) Reactions were performed in 96-Well U-bottom microtiter plates (Greiner Bio-One; Frickenhausen/Germany, Cat. No. 650161), hereinafter designated “Assay Plates”. 10 μl of a solution comprising 40 μM Myelin Basic Protein (Invitrogen; Carlsbad, Calif./USA; Cat. No. 13228-010) and 4 μM ATP in three-fold concentrated Reaction Buffer (60 mM Tris-HCl, pH 7.5; 30 mM MgCl2; 3 mM dithiothreitol) were added into each well of the Assay Plate. 10 μl of serial dilutions of the compounds of the subject invention, dissolved in 4% DMSO, were then added into each well, except for Positive Control. Wells (C+ wells) and Negative Control Wells (C− wells). 10 μl of 4% DMSO without compounds were added to C+ and C− wells. 10 μl of a 500 mM solution of EDTA in water was then added to C− wells. Then 10 μl of a solution containing 50 μCi/ml Adenosine 5′-[γ-^33P]triphosphate in water was added to each well. To start the reaction 10 μl of the kinase to be assayed was added to each well. The optimal amount of kinase in the assay was determined to be the amount which yields to a turn-over of about 10% of ATP. Assay Plates were incubated for one hour at room temperature. Then 10 μl of a 500 mM solution of EDTA in water was added to each well except C− wells. Samples were now ready for measurement.
(§3) Measurements were preformed in 96-Well MAPH-Filter Plates (Millipore; Billerica, Mass./United States; Cat. No. MAPHNOB50), hereinafter designated “Measurement Plates”. Measurement Plates were washed with 200 μl of a 0.75% H3PO4 solution per well. The H3PO4 solution was exhausted using a Millipore vacuum station. 60 μl of a 0.75% H3PO4 solution was then added into each well, followed by the transfer of 30 μl of each well from the Assay Plate into the corresponding wells of the Measurement Plate. The Measurement Plate was incubated for 30 minutes at room temperature. Thereafter each well was washed three times with 200 μl of a 0.75% H3PO4 solution using a Millipore vacuum station. 20 μl of scintillation liquid (Supermix Liquid Szintillator; Perkin Elmer, Wellesley. Mass./United States; Cat. No. 1200-439) was then added to each well of the Measurement Plate. The plate was sealed and stored for 30 minutes in the darkness before radioactivity was quantified in a MicroBeta Scintillation Counter (Perkin Elmer, Wellesley. Mass./United States).

Another test deals with RICK (Homo sapiens, UniProt O43353). To be noted: class symbol: % inhibition at 10 μM or IC50; for inhibition at 10 µM: 1 h, read-out: Inhibitory effect on target RICK. The method, then:
as §1, §2, §3

For another test, the target named is c-kit (Homo sapiens, UniProt P10721). To be noted: 1 h; class symbol: % inhibition at 10 μM or IC50; read-out: Inhibitory effect on target c-kit. How it is done:
as §1, §2, §3

The target in a further test is p56Lck (Homo sapiens, UniProt P06239). Conditions: class symbol: % inhibition at 10 μM or IC50; for inhibition at 10 µM: 1 h, read-out: Inhibitory effect on target p56Lck. The method, then: as §1, §2, §3
Another test deals with cRaf (Homo sapiens, UniProt P04049). To be noted: class symbol: % inhibition at 10 μM or IC50; for inhibition at 10 µM: 1 h, read-out: Inhibitory effect on target cRaf. How it is done: as §1, §2, §3
For another test, the target named is Abl (Homo sapiens, UniProt P00519). To be noted: 1 h; class symbol: % inhibition at 10 μM or IC50; read-out: Inhibitory effect on target Abl. How it is done:
as §1, §2, §3

For the next test, the system named is PDGFR. Conditions: class symbol: % inhibition at 10 μM or IC50. The method, then:
as §1, §2, §3

Another test concerns the target EGFR (Homo sapiens, UniProt P00533). Conditions: class symbol: % inhibition at 10 μM or IC50. The method, then: as §1, §2, §3

Where only a bound is given, the exact number is not on record here.

Chain of Abl (P00519 whole entry, species assumed): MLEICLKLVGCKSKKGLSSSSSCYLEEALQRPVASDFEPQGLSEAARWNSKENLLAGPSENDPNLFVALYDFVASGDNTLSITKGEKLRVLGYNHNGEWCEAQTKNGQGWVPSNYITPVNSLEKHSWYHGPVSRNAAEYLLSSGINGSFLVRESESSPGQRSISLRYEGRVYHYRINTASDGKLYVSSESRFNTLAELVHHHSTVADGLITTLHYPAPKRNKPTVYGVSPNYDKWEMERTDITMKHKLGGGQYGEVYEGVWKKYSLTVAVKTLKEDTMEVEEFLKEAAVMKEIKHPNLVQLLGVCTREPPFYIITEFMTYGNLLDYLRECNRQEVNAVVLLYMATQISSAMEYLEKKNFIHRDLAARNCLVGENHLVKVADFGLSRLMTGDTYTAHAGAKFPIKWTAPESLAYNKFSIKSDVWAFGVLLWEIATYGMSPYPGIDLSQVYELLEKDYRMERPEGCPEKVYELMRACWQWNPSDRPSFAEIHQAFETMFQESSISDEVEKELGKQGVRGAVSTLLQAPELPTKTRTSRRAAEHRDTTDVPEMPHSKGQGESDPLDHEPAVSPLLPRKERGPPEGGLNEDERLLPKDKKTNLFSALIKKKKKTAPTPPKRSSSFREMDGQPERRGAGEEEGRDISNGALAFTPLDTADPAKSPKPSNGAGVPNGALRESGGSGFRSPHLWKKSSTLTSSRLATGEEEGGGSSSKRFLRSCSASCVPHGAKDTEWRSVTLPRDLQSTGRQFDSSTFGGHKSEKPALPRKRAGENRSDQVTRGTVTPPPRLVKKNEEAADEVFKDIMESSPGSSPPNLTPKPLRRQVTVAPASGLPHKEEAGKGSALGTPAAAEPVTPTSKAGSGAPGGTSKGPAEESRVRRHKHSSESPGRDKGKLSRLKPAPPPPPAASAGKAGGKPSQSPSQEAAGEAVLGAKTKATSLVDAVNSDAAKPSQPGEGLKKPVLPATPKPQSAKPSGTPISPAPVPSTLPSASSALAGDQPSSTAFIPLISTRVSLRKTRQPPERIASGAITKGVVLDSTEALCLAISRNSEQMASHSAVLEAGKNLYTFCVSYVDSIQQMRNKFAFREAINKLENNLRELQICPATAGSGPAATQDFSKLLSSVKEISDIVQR
Chain of RICK (O43353 whole entry, species assumed): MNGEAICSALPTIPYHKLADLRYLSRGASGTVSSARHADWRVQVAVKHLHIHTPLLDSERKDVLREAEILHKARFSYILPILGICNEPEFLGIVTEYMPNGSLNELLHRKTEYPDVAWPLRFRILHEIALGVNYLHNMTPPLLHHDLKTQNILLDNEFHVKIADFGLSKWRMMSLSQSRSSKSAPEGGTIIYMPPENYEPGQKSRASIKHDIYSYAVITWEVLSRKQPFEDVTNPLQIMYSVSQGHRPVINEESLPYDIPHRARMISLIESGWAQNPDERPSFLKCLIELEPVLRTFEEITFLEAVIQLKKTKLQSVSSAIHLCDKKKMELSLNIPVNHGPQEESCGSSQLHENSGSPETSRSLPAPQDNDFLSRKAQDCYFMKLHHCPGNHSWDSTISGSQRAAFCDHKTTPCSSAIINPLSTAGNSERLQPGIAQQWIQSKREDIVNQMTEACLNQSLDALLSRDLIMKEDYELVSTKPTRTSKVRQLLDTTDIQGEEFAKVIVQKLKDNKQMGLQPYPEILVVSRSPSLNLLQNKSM
Chain of ROCK 2 (O75116 whole entry, species assumed): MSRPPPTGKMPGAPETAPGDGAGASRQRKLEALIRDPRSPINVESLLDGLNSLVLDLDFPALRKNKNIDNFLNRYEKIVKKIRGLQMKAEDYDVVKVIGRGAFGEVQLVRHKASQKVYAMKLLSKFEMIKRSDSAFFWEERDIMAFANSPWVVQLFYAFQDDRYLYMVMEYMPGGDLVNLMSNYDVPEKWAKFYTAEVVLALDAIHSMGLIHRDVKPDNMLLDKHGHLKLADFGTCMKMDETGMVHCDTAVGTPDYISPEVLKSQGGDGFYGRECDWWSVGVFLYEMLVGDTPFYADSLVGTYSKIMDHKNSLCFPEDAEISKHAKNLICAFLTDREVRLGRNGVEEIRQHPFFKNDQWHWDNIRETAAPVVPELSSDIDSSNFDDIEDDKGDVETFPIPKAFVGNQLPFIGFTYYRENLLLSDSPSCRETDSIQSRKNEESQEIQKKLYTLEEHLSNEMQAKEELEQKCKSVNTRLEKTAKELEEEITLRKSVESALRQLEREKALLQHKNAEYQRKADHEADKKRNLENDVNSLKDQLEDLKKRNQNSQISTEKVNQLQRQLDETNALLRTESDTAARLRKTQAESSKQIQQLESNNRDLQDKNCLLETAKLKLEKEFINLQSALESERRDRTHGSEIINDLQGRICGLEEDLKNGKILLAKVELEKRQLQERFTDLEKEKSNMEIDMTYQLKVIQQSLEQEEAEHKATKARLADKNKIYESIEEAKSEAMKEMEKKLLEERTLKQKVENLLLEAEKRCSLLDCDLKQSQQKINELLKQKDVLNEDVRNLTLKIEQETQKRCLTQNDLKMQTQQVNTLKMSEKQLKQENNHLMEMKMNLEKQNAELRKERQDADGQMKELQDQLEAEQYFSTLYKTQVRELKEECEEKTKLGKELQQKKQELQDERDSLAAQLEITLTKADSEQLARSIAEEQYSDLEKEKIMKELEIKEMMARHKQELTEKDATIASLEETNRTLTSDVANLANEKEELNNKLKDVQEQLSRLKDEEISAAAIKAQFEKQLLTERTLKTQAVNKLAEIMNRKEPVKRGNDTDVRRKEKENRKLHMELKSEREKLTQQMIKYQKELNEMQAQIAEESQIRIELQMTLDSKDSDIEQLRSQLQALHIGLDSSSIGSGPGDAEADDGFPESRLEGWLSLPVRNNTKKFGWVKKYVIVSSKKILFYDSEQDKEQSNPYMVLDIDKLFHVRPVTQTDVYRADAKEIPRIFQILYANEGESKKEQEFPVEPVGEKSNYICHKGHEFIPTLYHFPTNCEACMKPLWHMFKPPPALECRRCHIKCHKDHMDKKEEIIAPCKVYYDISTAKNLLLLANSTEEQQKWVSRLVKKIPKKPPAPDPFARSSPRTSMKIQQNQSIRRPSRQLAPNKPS
Chain of cRaf (P04049 whole entry, species assumed): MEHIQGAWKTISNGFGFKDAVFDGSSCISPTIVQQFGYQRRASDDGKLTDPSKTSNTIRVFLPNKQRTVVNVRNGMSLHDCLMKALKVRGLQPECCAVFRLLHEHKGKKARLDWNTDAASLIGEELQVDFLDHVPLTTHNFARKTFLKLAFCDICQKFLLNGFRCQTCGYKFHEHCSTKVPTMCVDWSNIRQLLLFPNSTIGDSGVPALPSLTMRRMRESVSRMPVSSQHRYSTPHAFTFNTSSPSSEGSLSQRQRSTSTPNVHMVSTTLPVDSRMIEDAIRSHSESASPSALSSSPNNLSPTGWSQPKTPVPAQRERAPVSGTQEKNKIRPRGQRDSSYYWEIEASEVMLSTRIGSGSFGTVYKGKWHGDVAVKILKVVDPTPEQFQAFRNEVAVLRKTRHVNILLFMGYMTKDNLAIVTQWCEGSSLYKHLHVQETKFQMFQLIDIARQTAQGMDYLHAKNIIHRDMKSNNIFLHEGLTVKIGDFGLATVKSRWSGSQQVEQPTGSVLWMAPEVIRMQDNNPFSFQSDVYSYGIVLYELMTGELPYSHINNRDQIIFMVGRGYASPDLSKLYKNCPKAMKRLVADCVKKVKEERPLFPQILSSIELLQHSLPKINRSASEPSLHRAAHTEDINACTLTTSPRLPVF
Chain of EGFR (P00533 25-1210, species assumed): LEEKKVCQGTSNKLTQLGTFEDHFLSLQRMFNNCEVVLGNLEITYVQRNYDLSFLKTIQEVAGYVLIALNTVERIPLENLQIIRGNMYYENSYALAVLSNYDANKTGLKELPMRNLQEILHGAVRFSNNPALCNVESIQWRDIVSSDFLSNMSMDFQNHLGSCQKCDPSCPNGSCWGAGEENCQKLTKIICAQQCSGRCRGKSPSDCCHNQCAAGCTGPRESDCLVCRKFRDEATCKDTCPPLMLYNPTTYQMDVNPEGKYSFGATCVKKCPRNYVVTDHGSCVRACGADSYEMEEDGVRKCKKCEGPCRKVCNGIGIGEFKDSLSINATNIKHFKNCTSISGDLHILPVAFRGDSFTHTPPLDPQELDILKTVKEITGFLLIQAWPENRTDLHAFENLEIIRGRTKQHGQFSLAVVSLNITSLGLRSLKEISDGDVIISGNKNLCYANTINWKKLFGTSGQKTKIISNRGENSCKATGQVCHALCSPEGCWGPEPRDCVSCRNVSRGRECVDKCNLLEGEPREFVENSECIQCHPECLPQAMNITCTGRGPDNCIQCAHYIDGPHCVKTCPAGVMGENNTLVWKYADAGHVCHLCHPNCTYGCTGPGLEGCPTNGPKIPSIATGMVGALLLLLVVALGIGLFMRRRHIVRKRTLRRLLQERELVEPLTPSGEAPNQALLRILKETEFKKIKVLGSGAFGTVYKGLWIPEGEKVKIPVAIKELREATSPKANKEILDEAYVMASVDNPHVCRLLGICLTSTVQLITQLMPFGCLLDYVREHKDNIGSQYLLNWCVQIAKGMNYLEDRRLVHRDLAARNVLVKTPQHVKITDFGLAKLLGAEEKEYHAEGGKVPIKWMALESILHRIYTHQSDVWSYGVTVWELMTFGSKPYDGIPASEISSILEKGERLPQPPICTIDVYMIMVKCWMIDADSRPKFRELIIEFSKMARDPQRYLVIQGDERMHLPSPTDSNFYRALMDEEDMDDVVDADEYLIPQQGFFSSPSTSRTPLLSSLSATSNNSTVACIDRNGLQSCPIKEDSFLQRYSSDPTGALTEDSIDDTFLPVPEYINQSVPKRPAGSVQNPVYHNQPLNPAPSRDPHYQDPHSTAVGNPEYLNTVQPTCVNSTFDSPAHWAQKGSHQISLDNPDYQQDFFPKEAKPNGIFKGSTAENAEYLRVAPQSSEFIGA

As to `Oc1ccc(-c2cncc(NCc3ccc4c(c3)OCO4)c2)cc1` [Compound 126, 4-{5-[(Benzo[1,3]dioxol-5-ylmethyl)-amino]-pyridin-3-yl}-phenol], the inhibition at 10 µM at ROCK 2 and on RICK was 50 to 90% in each case.
`Oc1ccc(-c2cncc(NCc3ccc(F)c(F)c3)c2)cc1` [Compound 127, 4-[5-(3,4-Difluoro-benzylamino)-pyridin-3-yl]-phenol]: the inhibition at 10 µM on ROCK 2 and at RICK was 50 to 90% each time.
As to `Oc1cccc(CNc2cncc(-c3cncnc3)c2)c1` [Compound 195, 3-[(5-Pyrimidin-5-yl-pyridin-3-ylamino)-methyl]-phenol], the inhibition at 10 µM on c-kit, on p56Lck and on cRaf was 50 to 90% throughout. On RICK, the “Inhibitory effect on target RICK” value was “C (C: IC50 measured: <1 μM)”.
For the compound `OCc1cccc(-c2cncc(NCc3cccc(O)c3)c2)c1` [Compound 216, 3-{[5-(3-Hydroxymethyl-phenyl)-pyridin-3-ylamino]-methyl}-phenol], the inhibition at 10 µM on Abl is 50 to 90%; on c-kit, greater than 90%; at p56Lck it was 50 to 90%; at cRaf it was 50 to 90%. In addition, the “Inhibitory effect on target PDGFR” value in the test with PDGFR was “A (A: 50-90% inhibition at 10 μM enzyme concentration)”. On EGFR, the “Inhibitory effect on target EGFR” value was “A (A: 50-90% inhibition at 10 μM enzyme concentration)”. For the same compound, the “Inhibitory effect on target RICK” value at RICK was “C (C: IC50 measured: <1 μM)”.
Consider `COc1ccc(-c2cncc(NCc3cccc(O)c3)c2)cc1OC` [Compound 223, 3-{[5-(3,4-Dimethoxy-phenyl)-pyridin-3-ylamino]-methyl}-phenol], for which the inhibition at 10 µM at Abl is 50 to 90%; at c-kit, greater than 90%; at p56Lck, 50 to 90%; at cRaf, 50 to 90%. The “Inhibitory effect on target PDGFR” value in the test with PDGFR is listed as “A (A: 50-90% inhibition at 10 μM enzyme concentration)”. Also, at EGFR, the “Inhibitory effect on target EGFR” value is “A (A: 50-90% inhibition at 10 μM enzyme concentration)”. The “Inhibitory effect on target RICK” value on RICK is “C (C: IC50 measured: <1 μM)”.
On to `CN(C)CCNC(=O)c1cccc(-c2cncc(NCc3cccc(O)c3)c2)c1` [Compound 224, N-(2-Dimethylamino-ethyl)-3-[5-(3-hydroxy-benzylamino)-pyridin-3-yl]-benzamide], for which the inhibition at 10 µM at Abl, on c-kit and on p56Lck was 50 to 90% each time. Also, the “Inhibitory effect on target PDGFR” value in the test on PDGFR was “A (A: 50-90% inhibition at 10 μM enzyme concentration)”. Besides, the “Inhibitory effect on target EGFR” value on EGFR is listed as “A (A: 50-90% inhibition at 10 μM enzyme concentration)”. Also, on RICK, the “Inhibitory effect on target RICK” value was “C (C: IC50 measured: <1 μM)”.
In the case of `CS(=O)(=O)Nc1cccc(-c2cncc(NCc3cccc(O)c3)c2)c1` [Compound 226, N-{3-[5-(3-Hydroxy-benzylamino)-pyridin-3-yl]-phenyl}-methanesulfonamide], the inhibition at 10 µM at Abl is 50 to 90%; on c-kit, greater than 90%; at p56Lck it was 50 to 90%. Moreover, the “Inhibitory effect on target PDGFR” value in the test on PDGFR is “A (A: 50-90% inhibition at 10 μM enzyme concentration)”. Also, the “Inhibitory effect on target EGFR” value on EGFR is given as “A (A: 50-90% inhibition at 10 μM enzyme concentration)”. For the same compound, on RICK, the “Inhibitory effect on target RICK” value is “C (C: IC50 measured: <1 μM)”.
`NC(=O)c1cccc(-c2cncc(NCc3cccc(O)c3)c2)c1` [Compound 230, 3-[5-(3-Hydroxy-benzylamino)-pyridin-3-yl]-benzamide]: the inhibition at 10 µM on Abl was greater than 90%; at c-kit, greater than 90%; at p56Lck, greater than 90%; on cRaf, 50 to 90%. Moreover, on ROCK 2, the “Inhibitory effect on target ROCK 2” value is recorded as “C (C: IC50 measured: <1 μM)”. Moreover, the “Inhibitory effect on target EGFR” value at EGFR is given as “A (A: 50-90% inhibition at 10 μM enzyme concentration)”. For the same compound, the “Inhibitory effect on target RICK” value at RICK is on record as “C (C: IC50 measured: <1 μM)”.
`Nc1cccc(-c2cncc(NCc3cccc(O)c3)c2)c1` [Compound 232, 3-{[5-(3-Amino-phenyl)-pyridin-3-ylamino]-methyl}-phenol]: the inhibition at 10 µM is greater than 90% at Abl, greater than 90% on c-kit, greater than 90% at p56Lck and 50 to 90% at cRaf. In the test on PDGFR, the “Inhibitory effect on target PDGFR” value is listed as “A (A: 50-90% inhibition at 10 μM enzyme concentration)”. Moreover, on EGFR, the “Inhibitory effect on target EGFR” value is reported as “A (A: 50-90% inhibition at 10 μM enzyme concentration)”. Also, the “Inhibitory effect on target RICK” value on RICK is “C (C: IC50 measured: <1 μM)”.
For `Oc1cccc(CNc2cncc(-c3ccccc3)c2)c1` [Compound 238, 3-[(5-Phenyl-pyridin-3-ylamino)-methyl]-phenol], the inhibition at 10 µM at Abl is 50 to 90%; at c-kit, greater than 90%; on p56Lck it was 50 to 90%; at cRaf, 50 to 90%. Further, the “Inhibitory effect on target PDGFR” value in the test with PDGFR was “A (A: 50-90% inhibition at 10 μM enzyme concentration)”. Besides, at EGFR, the “Inhibitory effect on target EGFR” value is “A (A: 50-90% inhibition at 10 μM enzyme concentration)”. Moreover, at RICK, the “Inhibitory effect on target RICK” value is “C (C: IC50 measured: <1 μM)”.
For `Oc1cccc(CCNc2cncc(-c3cccc(O)c3)c2)c1` [Compound 244, 3-{5-[2-(3-Hydroxy-phenyl)-ethylamino]-pyridin-3-yl}-phenol], the inhibition at 10 µM on Abl, at c-kit and on p56Lck was 50 to 90% each time. For the same compound, the “Inhibitory effect on target PDGFR” value in the test on PDGFR is on record as “A (A: 50-90% inhibition at 10 μM enzyme concentration)”. For the same compound, the “Inhibitory effect on target EGFR” value on EGFR is on record as “B (B: >90% inhibition at 10 μM enzyme concentration)”. Further, the “Inhibitory effect on target RICK” value at RICK is “C (C: IC50 measured: <1 μM)”.
With `O=C(O)c1cccc(-c2cncc(NCc3cccc(O)c3)c2)c1` [Compound 246, 3-[5-(3-Hydroxy-benzylamino)-pyridin-3-yl]-benzoic acid], the inhibition at 10 µM at Abl is 50 to 90%; on c-kit, 50 to 90%; at p56Lck, 50 to 90%; on cRaf, greater than 90%. In the test on PDGFR, the “Inhibitory effect on target PDGFR” value is listed as “A (A: 50-90% inhibition at 10 μM enzyme concentration)”. The “Inhibitory effect on target EGFR” value on EGFR is “A (A: 50-90% inhibition at 10 μM enzyme concentration)”. Also, the “Inhibitory effect on target RICK” value at RICK was “C (C: IC50 measured: <1 μM)”.
Turning to `Cc1ccc(CNc2cncc(-c3cccc(O)c3)c2)cc1O` [Compound 247, 5-{[5-(3-Hydroxy-phenyl)-pyridin-3-ylamino]-methyl}-2-methyl-phenol], the inhibition at 10 µM on c-kit and on ROCK 2 was 50 to 90% in each case. In the test with PDGFR, the “Inhibitory effect on target PDGFR” value was “A (A: 50-90% inhibition at 10 μM enzyme concentration)”. In addition, the “Inhibitory effect on target EGFR” value on EGFR was “A (A: 50-90% inhibition at 10 μM enzyme concentration)”. For the same compound, the “Inhibitory effect on target RICK” value at RICK was “C (C: IC50 measured: <1 μM)”.
Take `COC(=O)c1cccc(CNc2cncc(-c3cccc(O)c3)c2)c1` [Compound 264, 3-{[5-(3-Hydroxy-phenyl)-pyridin-3-ylamino]mθthyl}-benzoic acid methyl ester]: the “Inhibitory effect on target p56Lck” value on p56Lck is “A (A: 50-90% inhibition at 10 μM enzyme concentration)”. The “Inhibitory effect on target PDGFR” value in the test on PDGFR is reported as “A (A: 50-90% inhibition at 10 μM enzyme concentration)”. Moreover, the “Inhibitory effect on target EGFR” value at EGFR was “A (A: 50-90% inhibition at 10 μM enzyme concentration)”. Further, the “Inhibitory effect on target cRaf” value on cRaf is “A (A: 50-90% inhibition at 10 μM enzyme concentration)”. For the same compound, the “Inhibitory effect on target RICK” value at RICK is given as “A (A: 50-90% inhibition at 10 μM enzyme concentration)”.
